# Results as given in the kinase profiling compilation of Christmann-Franck et al. (2016).
# Columns and labels:
# Assay in all cases: Caliper, Mobility shift assay off-chip
# AKT2 (human) = AKT2 (human) (UniProt P31751)
# CAMK2D (human) = CAMK2D (human) (UniProt Q13557)
# CAMK2G (human) = CAMK2G (human) (UniProt Q13555)
# CDK9 (human) = CDK9 (human) (UniProt P50750)
# CSNK1G3 (human) = CSNK1G3 (human) (UniProt Q9Y6M4)
# DDR1 (human) = DDR1 (human) (UniProt Q08345)
# EPHA5 (human) = EPHA5 (human) (UniProt P54756)
# ERBB2 (human) = ERBB2 (human) (UniProt P04626); details: compound 0.02 µM
# ERBB4 (human) = ERBB4 (human) (UniProt Q15303)
# HIPK2 (human) = HIPK2 (human) (UniProt Q9H2X6)
# HIPK2 (human), sequence (Q9H2X6 whole entry, looked up): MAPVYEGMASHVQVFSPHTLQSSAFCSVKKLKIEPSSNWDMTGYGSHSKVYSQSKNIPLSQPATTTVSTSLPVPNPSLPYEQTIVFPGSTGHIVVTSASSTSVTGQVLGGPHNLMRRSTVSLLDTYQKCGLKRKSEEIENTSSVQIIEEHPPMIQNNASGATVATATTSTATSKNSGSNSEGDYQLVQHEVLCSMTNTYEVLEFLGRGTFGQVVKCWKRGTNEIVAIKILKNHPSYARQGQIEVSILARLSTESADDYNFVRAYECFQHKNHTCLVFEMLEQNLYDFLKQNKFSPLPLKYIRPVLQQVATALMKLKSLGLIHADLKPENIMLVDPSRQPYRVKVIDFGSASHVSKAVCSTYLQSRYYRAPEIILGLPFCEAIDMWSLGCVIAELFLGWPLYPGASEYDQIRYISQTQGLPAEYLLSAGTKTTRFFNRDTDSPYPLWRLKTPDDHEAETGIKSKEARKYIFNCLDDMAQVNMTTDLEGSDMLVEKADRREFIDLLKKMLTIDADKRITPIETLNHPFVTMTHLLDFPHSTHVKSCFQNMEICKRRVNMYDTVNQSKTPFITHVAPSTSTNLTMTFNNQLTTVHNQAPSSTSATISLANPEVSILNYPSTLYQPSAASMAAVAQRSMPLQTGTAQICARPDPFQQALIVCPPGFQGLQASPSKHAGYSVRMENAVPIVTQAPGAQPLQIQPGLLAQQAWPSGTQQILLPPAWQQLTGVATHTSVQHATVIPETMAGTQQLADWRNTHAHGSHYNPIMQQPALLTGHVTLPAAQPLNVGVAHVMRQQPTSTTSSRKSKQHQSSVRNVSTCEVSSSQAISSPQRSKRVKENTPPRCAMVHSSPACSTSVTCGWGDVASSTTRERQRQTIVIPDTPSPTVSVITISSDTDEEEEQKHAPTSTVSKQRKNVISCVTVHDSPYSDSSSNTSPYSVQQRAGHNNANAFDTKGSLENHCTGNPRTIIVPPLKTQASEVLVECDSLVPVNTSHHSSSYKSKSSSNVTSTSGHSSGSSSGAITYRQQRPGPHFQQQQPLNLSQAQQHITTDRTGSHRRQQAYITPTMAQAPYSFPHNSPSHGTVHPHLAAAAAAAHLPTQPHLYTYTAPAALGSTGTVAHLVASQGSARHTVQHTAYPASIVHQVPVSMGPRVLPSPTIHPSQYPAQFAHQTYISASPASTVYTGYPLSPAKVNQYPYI
# MAPK1 (human) = MAPK1 (human) (UniProt P28482)
# MAPK1 (human), sequence (P28482 whole entry, looked up): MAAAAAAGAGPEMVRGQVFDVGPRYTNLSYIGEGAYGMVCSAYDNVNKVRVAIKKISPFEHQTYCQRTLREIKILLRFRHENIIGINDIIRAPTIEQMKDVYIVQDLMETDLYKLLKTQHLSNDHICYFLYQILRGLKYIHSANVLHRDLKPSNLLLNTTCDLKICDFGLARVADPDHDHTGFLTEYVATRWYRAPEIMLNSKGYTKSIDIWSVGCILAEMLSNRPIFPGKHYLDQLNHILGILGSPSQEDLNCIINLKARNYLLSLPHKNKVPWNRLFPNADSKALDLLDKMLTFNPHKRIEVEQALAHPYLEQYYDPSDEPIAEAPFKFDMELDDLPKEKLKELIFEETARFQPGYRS
# MAPK13 (human) = MAPK13 (human) (UniProt O15264)
# MAPK3 (human) = MAPK3 (human) (UniProt P27361)
# MARK3 (human) = MARK3 (human) (UniProt P27448)
# NEK2 (human) = NEK2 (human) (UniProt P51955)
# NEK6 (human) = NEK6 (human) (UniProt Q9HC98)
# PDGFRB (human) = PDGFRB (human) (UniProt P09619)
# PDK2 (human) = PDK2 (human) (UniProt Q15119)
# PDK4 (human) = PDK4 (human) (UniProt Q16654)
# PDPK1 (human) = PDPK1 (human) (UniProt O15530)
# PLK3 (human) = PLK3 (human) (UniProt Q9H4B4)
# PRKACB (human) = PRKACB (human) (UniProt P22694)
# PRKCQ (human) = PRKCQ (human) (UniProt Q04759)
# PRKCQ (human), sequence (Q04759 whole entry, looked up): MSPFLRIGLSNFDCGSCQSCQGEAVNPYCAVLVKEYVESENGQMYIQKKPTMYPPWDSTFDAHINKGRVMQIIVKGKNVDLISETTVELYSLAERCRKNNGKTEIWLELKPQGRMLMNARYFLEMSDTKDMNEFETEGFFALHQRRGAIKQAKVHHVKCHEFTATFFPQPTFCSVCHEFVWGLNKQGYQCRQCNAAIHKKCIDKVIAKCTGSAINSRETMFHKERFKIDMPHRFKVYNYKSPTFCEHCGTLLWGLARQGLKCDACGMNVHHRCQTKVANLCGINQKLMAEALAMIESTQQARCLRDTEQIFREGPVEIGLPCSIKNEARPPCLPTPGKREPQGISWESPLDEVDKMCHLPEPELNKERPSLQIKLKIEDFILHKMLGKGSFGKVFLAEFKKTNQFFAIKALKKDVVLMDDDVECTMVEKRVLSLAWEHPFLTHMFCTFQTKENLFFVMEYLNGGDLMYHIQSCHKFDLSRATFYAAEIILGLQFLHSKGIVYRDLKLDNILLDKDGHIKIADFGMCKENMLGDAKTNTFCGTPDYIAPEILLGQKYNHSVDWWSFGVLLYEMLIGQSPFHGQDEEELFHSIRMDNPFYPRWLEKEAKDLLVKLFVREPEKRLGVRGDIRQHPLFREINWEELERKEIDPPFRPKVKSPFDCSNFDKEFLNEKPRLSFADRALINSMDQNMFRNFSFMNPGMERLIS
# ROCK2 (human) = ROCK2 (human) (UniProt O75116)
# RPS6KA2 KD1 KD2 (human) = RPS6KA2 KD1 KD2 (human) (UniProt Q15349)
# RPS6KA4 KD1 KD2 (human) = RPS6KA4 KD1 KD2 (human) (UniProt O75676)
# RPS6KB1 (human) = RPS6KB1 (human) (UniProt P23443)
# RPS6KB2 (human) = RPS6KB2 (human) (UniProt Q9UBS0)
# SIK2 (human) = SIK2 (human) (UniProt Q9H0K1)
# TAOK2 (human) = TAOK2 (human) (UniProt Q9UL54)
# TAOK2 (human), sequence (Q9UL54 whole entry, looked up): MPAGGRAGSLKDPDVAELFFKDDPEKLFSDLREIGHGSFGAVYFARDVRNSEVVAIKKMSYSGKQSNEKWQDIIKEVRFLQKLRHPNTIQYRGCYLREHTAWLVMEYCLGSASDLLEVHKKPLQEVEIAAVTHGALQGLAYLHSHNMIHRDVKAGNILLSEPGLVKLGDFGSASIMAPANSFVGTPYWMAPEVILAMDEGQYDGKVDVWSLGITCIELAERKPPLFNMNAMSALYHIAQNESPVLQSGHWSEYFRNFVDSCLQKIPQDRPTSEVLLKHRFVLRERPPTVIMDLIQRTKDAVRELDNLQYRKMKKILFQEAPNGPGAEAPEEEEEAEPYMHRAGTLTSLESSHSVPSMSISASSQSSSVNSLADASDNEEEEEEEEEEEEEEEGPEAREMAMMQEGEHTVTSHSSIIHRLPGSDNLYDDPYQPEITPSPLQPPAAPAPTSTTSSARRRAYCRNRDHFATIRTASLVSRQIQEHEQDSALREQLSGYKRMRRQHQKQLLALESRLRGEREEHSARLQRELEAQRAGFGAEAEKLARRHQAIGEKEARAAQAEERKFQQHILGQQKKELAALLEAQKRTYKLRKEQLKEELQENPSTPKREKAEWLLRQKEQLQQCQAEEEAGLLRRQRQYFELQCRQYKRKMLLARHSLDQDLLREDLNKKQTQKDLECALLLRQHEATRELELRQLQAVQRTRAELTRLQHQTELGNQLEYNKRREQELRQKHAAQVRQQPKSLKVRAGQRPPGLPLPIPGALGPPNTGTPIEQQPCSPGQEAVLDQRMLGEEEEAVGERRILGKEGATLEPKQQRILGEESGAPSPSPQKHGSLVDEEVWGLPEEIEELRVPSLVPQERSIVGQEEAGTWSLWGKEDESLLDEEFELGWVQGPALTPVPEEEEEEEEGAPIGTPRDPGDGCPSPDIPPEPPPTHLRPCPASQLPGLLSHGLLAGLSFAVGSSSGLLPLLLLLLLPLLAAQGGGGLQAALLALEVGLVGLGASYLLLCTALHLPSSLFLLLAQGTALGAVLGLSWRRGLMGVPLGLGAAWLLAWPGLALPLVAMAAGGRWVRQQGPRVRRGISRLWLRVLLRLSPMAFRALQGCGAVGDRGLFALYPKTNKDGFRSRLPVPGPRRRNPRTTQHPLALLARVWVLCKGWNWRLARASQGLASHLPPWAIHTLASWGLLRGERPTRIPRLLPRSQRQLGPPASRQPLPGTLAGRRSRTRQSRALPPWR
# TEC (human) = TEC (human) (UniProt P42680)
# TEC (human), sequence (P42680 whole entry, looked up): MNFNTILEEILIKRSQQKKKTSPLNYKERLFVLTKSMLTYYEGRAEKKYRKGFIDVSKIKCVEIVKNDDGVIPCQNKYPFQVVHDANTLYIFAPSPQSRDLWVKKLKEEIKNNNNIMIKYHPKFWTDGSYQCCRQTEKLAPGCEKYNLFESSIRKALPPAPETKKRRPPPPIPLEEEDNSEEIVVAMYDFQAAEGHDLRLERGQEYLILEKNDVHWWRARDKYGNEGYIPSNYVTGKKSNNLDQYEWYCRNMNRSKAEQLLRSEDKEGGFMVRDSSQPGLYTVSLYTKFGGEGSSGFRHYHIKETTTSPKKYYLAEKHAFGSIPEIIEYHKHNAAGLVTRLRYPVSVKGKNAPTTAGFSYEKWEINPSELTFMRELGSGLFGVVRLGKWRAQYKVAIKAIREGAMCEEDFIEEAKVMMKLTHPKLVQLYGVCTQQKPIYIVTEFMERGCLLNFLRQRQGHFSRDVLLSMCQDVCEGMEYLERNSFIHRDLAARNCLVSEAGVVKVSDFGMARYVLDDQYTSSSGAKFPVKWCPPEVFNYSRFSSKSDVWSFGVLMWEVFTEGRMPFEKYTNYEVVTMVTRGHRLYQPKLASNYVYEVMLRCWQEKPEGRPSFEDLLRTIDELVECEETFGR
# TXK (human) = TXK (human) (UniProt P42681)
# WNK3 (human) = WNK3 (human) (UniProt Q9BYP7)
# YES1 (human) = YES1 (human) (UniProt P07947)
# CDK9 (human), sequence (P50750 whole entry, looked up): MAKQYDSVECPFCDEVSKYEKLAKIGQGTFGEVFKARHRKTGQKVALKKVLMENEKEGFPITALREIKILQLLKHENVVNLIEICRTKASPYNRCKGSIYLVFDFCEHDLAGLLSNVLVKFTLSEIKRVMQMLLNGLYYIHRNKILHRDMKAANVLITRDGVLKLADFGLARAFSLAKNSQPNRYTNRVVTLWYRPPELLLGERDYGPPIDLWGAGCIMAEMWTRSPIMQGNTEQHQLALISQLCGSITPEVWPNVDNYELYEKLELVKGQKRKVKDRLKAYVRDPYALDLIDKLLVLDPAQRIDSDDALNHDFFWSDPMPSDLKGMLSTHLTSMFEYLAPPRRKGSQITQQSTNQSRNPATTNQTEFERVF
# CAMK2G (human), sequence (Q13555 whole entry, looked up): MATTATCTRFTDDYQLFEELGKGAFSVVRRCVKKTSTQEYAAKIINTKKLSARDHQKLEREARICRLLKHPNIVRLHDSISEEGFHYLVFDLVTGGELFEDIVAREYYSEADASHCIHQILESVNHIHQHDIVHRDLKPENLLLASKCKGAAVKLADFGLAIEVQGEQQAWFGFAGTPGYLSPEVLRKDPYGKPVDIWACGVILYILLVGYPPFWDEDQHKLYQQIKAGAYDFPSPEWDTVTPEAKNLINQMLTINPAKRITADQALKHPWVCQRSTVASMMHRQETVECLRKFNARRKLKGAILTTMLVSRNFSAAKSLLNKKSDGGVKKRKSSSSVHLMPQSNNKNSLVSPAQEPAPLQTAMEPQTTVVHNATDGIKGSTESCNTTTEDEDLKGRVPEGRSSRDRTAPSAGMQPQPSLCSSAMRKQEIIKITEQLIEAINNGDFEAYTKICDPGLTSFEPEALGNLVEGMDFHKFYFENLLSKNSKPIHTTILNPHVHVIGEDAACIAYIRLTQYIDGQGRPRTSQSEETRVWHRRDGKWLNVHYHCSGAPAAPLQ
smiles,measurement,setting,value
COc1cc2c(Oc3ccc4[nH]c(C)cc4c3F)ncnc2cc1OCCCN1CCCC1,inhibition,AKT2 (human); compound 0.02 µM,6.9%
same,inhibition,AKT2 (human); compound 0.2 µM,-0.1%
same,inhibition,CAMK2D (human); compound 0.02 µM,3.9%
same,inhibition,CAMK2D (human); compound 0.2 µM,3.9%
same,inhibition,CAMK2G (human); compound 0.02 µM,0.2%
same,inhibition,CAMK2G (human); compound 0.2 µM,1.5%
same,inhibition,CDK9 (human); compound 0.02 µM,-3.2%
same,inhibition,CDK9 (human); compound 0.2 µM,-3.3%
same,inhibition,CSNK1G3 (human); compound 0.02 µM,2.8%
same,inhibition,CSNK1G3 (human); compound 0.2 µM,-1.8%
same,inhibition,DDR1 (human); compound 0.02 µM,25.7%
same,inhibition,DDR1 (human); compound 0.2 µM,95.3%
same,inhibition,EPHA5 (human); compound 0.02 µM,-0.9%
same,inhibition,EPHA5 (human); compound 0.2 µM,7.6%
same,inhibition,ERBB2 (human),3.9%
same,inhibition,ERBB4 (human); compound 0.02 µM,17.2%
same,inhibition,ERBB4 (human); compound 0.2 µM,49.8%
same,inhibition,HIPK2 (human); compound 0.02 µM,-1.7%
same,inhibition,HIPK2 (human); compound 0.2 µM,0.7%
same,inhibition,MAPK1 (human); compound 0.02 µM,-6.5%
same,inhibition,MAPK1 (human); compound 0.2 µM,-9%
same,inhibition,MAPK13 (human); compound 0.02 µM,-2.9%
same,inhibition,MAPK13 (human); compound 0.2 µM,-3.4%
same,inhibition,MAPK3 (human); compound 0.02 µM,-1.5%
same,inhibition,MAPK3 (human); compound 0.2 µM,-5%
same,inhibition,MARK3 (human); compound 0.02 µM,-1.8%
same,inhibition,MARK3 (human); compound 0.2 µM,-3.4%
same,inhibition,NEK2 (human); compound 0.02 µM,6.3%
same,inhibition,NEK2 (human); compound 0.2 µM,5.3%
same,inhibition,NEK6 (human); compound 0.02 µM,-4.2%
same,inhibition,NEK6 (human); compound 0.2 µM,-3.5%
same,inhibition,PDGFRB (human); compound 0.02 µM,17.9%
same,inhibition,PDGFRB (human); compound 0.2 µM,61.8%
same,inhibition,PDK2 (human); compound 0.02 µM,-2.7%
same,inhibition,PDK2 (human); compound 0.2 µM,-4.9%
same,inhibition,PDK4 (human); compound 0.02 µM,2.7%
same,inhibition,PDK4 (human); compound 0.2 µM,1.6%
same,inhibition,PDPK1 (human); compound 0.02 µM,-2.1%
same,inhibition,PDPK1 (human); compound 0.2 µM,-4.8%
same,inhibition,PLK3 (human); compound 0.02 µM,6%
same,inhibition,PLK3 (human); compound 0.2 µM,7.9%
same,inhibition,PRKACB (human); compound 0.02 µM,6.8%
same,inhibition,PRKACB (human); compound 0.2 µM,-7.7%
same,inhibition,PRKCQ (human); compound 0.02 µM,8.9%
same,inhibition,PRKCQ (human); compound 0.2 µM,3.7%
same,inhibition,ROCK2 (human); compound 0.02 µM,-2.2%
same,inhibition,ROCK2 (human); compound 0.2 µM,-4.8%
same,inhibition,RPS6KA2 KD1 KD2 (human); compound 0.02 µM,3.9%
same,inhibition,RPS6KA2 KD1 KD2 (human); compound 0.2 µM,2.2%
same,inhibition,RPS6KA4 KD1 KD2 (human); compound 0.02 µM,-4.9%
same,inhibition,RPS6KA4 KD1 KD2 (human); compound 0.2 µM,2.6%
same,inhibition,RPS6KB1 (human); compound 0.02 µM,8.1%
same,inhibition,RPS6KB1 (human); compound 0.2 µM,8.6%
same,inhibition,RPS6KB2 (human); compound 0.02 µM,1%
same,inhibition,RPS6KB2 (human); compound 0.2 µM,0.6%
same,inhibition,SIK2 (human); compound 0.02 µM,3.7%
same,inhibition,SIK2 (human); compound 0.2 µM,16.5%
same,inhibition,TAOK2 (human); compound 0.02 µM,3.1%
same,inhibition,TAOK2 (human); compound 0.2 µM,3.3%
same,inhibition,TEC (human); compound 0.02 µM,4.5%
same,inhibition,TEC (human); compound 0.2 µM,5.3%
same,inhibition,TXK (human); compound 0.02 µM,-0.7%
same,inhibition,TXK (human); compound 0.2 µM,-0.1%
same,inhibition,WNK3 (human); compound 0.02 µM,0.8%
same,inhibition,WNK3 (human); compound 0.2 µM,-1.1%
same,inhibition,YES1 (human); compound 0.02 µM,26.9%
same,inhibition,YES1 (human); compound 0.2 µM,73.7%
